Results on five compounds are retold here after patent US20040224942A1 (priority 2003, published 2004).

Data set [1] addresses T1, M4 muscarinic receptor (Homo sapiens, UniProt P08173).
T1 sequence (P08173 1-479): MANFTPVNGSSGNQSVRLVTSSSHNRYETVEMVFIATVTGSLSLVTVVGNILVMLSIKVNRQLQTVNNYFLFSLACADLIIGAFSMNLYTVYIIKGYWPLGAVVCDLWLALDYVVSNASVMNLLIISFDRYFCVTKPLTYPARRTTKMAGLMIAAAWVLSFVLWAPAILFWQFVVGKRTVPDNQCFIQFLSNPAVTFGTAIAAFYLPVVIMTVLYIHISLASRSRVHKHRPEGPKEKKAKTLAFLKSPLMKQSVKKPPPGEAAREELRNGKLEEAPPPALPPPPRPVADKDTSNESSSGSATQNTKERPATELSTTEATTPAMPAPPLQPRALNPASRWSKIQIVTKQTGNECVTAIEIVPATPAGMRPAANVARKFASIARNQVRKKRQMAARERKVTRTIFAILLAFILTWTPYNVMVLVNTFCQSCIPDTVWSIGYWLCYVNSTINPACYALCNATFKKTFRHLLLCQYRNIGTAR
The experiment in a line: cell-based. Conditions: read-out: % Efficacy M4.

The target of the next data set is T2, M5 muscarinic receptor (Homo sapiens, UniProt P08912).
T2 construct: expressed in transfected cells
T2 sequence (P08912 1-532): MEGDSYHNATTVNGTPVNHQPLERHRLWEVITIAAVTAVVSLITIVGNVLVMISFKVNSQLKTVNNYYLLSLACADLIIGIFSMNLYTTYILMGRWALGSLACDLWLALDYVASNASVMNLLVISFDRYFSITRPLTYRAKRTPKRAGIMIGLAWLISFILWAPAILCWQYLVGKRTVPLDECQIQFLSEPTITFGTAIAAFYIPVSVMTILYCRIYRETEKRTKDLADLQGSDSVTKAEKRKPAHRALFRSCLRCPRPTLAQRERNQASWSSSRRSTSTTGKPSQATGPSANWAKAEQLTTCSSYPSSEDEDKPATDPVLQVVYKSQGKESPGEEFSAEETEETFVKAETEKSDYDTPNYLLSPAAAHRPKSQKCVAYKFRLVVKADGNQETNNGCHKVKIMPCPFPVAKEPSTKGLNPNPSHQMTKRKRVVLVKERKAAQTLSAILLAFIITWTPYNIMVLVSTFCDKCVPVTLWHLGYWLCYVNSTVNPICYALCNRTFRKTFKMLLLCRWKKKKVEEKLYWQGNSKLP
Nature of the data set: R-SAT functional receptor assay, M5. Type of data set: cell-based. As to conditions: for Emax: read-out: % Efficacy M5; for % Efficacy M5: relative to full agonist carbachol.

The next data set deals with T3, M2 muscarinic receptor (Homo sapiens, UniProt P08172).
T3 sequence (P08172 1-466): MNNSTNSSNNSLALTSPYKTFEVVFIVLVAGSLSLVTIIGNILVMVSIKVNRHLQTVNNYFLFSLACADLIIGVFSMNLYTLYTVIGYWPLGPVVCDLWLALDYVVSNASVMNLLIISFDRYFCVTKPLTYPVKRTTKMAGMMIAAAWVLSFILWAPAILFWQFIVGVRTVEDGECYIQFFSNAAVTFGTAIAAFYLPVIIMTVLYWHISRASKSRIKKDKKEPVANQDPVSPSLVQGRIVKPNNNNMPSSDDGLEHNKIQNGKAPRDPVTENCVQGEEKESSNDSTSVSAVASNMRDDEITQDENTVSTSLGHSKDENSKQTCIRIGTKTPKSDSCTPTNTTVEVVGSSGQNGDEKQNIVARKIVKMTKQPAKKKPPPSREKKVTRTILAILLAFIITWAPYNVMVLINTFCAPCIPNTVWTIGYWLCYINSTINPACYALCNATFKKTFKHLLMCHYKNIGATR
The experiment in a line: R-SAT functional receptor assay, M2. As to conditions: for Emax: read-out: % Efficacy M2.

A further data set addresses M3 muscarinic receptor (Homo sapiens, UniProt P20309). The experiment in a line: R-SAT functional receptor assay, M3. Conditions: for Emax: read-out: % Efficacy M3.
Data set [2] addresses T1, M4 muscarinic receptor. As to conditions: R-SAT; relative to full agonist carbachol; ± standard deviation.
In data set [3] the target is T4, human M1 muscarinic receptors (Homo sapiens, UniProt P11229). Conditions: R-SAT; relative to full agonist carbachol; ± standard deviation.
Data set [4] concerns the target T4, human M1 muscarinic receptors. Nature of the data set: cell-based.
Data set [5] has the same target. The experiment in a line: cell-based. As to conditions: ± standard deviation.
The subject of data set [6] is hippocampal MAP kinase (MAPK) activity in CA1 pyramidal neurons. Nature of the data set: hippocampal MAP kinase activation assay after parenteral administration. Type of data set: in vivo, C57BL6 mice.
In data set [7] the target is T4, human M1 muscarinic receptors. As to conditions: PI hydrolysis; ± standard deviation.

“And” between values parts separate entries of the source, which are not always exact repeats. Equal entries are not always repeated. Where two headings read alike, the source gives them in different places.

T4 sequence (P11229 whole entry): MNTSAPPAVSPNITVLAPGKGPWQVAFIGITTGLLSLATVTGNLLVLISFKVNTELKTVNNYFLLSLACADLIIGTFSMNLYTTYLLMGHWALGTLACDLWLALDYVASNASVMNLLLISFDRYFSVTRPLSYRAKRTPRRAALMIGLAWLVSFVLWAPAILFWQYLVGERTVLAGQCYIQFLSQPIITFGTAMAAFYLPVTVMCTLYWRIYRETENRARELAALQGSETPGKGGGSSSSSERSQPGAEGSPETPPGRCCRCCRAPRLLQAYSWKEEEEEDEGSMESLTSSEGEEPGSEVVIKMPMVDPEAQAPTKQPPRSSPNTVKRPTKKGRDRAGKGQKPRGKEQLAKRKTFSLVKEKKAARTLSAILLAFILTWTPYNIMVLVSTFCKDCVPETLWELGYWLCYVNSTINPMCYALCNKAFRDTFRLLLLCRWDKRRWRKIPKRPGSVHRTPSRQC
Chain of M3 muscarinic receptor (P20309 whole entry): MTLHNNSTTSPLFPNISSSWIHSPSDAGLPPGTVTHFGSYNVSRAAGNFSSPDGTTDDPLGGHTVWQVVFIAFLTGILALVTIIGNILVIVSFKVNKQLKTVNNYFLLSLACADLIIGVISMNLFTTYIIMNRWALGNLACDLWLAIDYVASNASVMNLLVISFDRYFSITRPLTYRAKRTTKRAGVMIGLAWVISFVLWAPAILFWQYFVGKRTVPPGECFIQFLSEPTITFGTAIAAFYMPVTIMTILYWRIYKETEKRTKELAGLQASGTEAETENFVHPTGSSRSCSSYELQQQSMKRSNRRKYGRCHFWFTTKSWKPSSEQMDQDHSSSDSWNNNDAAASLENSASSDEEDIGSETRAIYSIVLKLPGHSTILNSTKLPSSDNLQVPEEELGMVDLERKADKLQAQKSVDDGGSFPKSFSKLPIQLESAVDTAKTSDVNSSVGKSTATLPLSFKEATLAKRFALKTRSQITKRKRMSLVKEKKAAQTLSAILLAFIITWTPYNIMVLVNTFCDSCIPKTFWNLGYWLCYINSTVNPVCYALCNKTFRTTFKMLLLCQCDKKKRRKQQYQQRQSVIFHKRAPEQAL

As to `C[N+](C)(C)CCOC(N)=O` [Carbachol, carbachol], the Emax on M4 muscarinic receptor [1] turned out to be 96 ± 3%; on M5 muscarinic receptor, 105 ± 3%.

For `CCCCCCOc1nsnc1C1=CCCN(C)C1` [Xanomeline], the Emax on M4 muscarinic receptor [1] was determined as 116 ± 9%; on M2 muscarinic receptor it was 106 ± 9%; at M3 muscarinic receptor, 66 ± 6%; at M5 muscarinic receptor it was 86 ± 12%.

In the case of `CN1CCN(C2=Nc3cc(Cl)ccc3Nc3ccccc32)CC1` [Clozapine, clozapine], the Emax at M4 muscarinic receptor [1] turned out to be 49 ± 6%; on M2 muscarinic receptor, 57 ± 4%. The “% Efficacy M5” value on M5 muscarinic receptor (R-SAT, ± standard deviation) was “no response”.

For the compound `Cc1cc2c(s1)Nc1ccccc1N=C2N1CCN(C)CC1` [Olanzapine, olanzapine], the “% Efficacy M4” value at M4 muscarinic receptor [2] is on record as “no response”. For the same compound, at M2 muscarinic receptor (R-SAT, relative to full agonist carbachol, ± standard deviation), the “% Efficacy M2” value is reported as “no response”. Moreover, the “% Efficacy M5” value on M5 muscarinic receptor (R-SAT, ± standard deviation) is “no response”.

As for `Clc1ccc2c(c1)N=C(N1CCNCC1)c1ccccc1N2` [N-desmethylclozapine, 8-chloro-11-(1-piperazinyl)-5H-dibenzo[b,e][1,4]diazepine], the “% Efficacy M1” value in data set [3] is given as 61 ± 5%. Moreover, the Emax at M4 muscarinic receptor [1] was 88 ± 3%; in [4] (read-out: % Efficacy M1, PI hydrolysis, relative to full agonist carbachol, ± standard deviation), greater than 65%; in [5] (read-out: % Efficacy M1, R-SAT, relative to full agonist carbachol) it was 65%; on M2 muscarinic receptor, 78 ± 7%; at M3 muscarinic receptor it was 19 ± 3%; on M5 muscarinic receptor, 66 ± 4%. In addition, the EC50 in data set [4] is 100 nM; in [5] (pEC50 M1, R-SAT), 63.1 nM and 60.3 nM; on M2 muscarinic receptor, 182 nM; at M3 muscarinic receptor, 129 nM; on M5 muscarinic receptor (R-SAT, ± standard deviation, read-out: pEC50 M5 (converted)), 45.7 nM. Also, the “blood brain barrier penetration” value in [6] (concluded from central MAPK activation after s.c. dosing) is given as “penetrates the blood brain barrier”. In addition, the “MAPK activation in hippocampus” value in data set [6] (s.c., dose of 30 mg/kg) is on record as “Robust activation”. Further, in data set [6] (s.c., immunohistochemistry, compared to vehicle or clozapine treatment), the “phospho-MAPK immunoreactivity in CA1 pyramidal neurons” value is listed as “increased phospho-MAPK immunoreactivity”. The “pEC50 M1” value in [7] was determined as 7.01 ± 0.06.
